Experimental data as given in US7993627B2, “Methods for determining whether a compound alters the amount of at least one αβ (X-41) peptide and the amount of either total αβ or at least one αβ (X-40) peptide produced by a non-human mammal” (Elan Pharmaceuticals, Inc., priority 1996, dated 2011).
Where a SMILES comes first, the peptide text is derived from it. The star is where a group is joined. Cbz = O=C(OCc1ccccc1)*

Experiments:
K695sw cells = experiment: Pulse-chase labeling and immunoprecipitation of chase media and cell lysates (APP processing); format: cell-based, human
Experimental: We first set out to reproduce the published results of Higaki et al. (1995) Neuron, 14:651-659 on the action of the compound MDL 28170 on APP processing, using human kidney 293 cells stably expressing APP695 with the Swedish FAD mutation (K695sw cells). Our experiments were done using a pulse-chase paradigm: K695sw cells were labeled for 2 hours with 35S-methionine and then chased for 2 hours in the presence of 200 μM MDL 28170. Aliquots of the chase media from treated and untreated cells were subjected to SDS-PAGE.
To address this question, we performed pulse-chase experiments on K695sw cells using different doses of MDL 28170, followed by sequential immunoprecipitation of the same media first with 21F12, a monoclonal antibody raised against amino acids 33-42 of Aβ (described above) which specifically precipitates Aβ peptides ending at position 42, and then with antibody 1282 which precipitates all forms of Aβ and p3 (Haass et al., (1992b) Nature 359:322-325) (FIG. 4A). […] Using MDL 28170 at 200 μM, the experiment was repeated four times and the results were quantitated by phosphorimaging (FIG. 4B).
All transfected cell lines described here carry derivatives of pCMV695, a plasmid carrying APP695 under control of the CMV promoter (Selkoe, (1988) Proc. Natl. Acad. Sci. 85:7341-7345) K695sw are human embryonic kidney 293 cells stably transfected with a construct carrying the AD-linked double (“Swedish”) mutation K595N/M596L (Citron et al. (1992) Nature, 360:672-674); K695717I are 293 cells stably transfected with APP695 carrying the mutation V717I (valine to isoleucine at position 717 in the APP770 numbering system). CHO695 are Chinese hamster ovary cells (CHO) stably transfected with pCMV695 (Oltersdorf (1990) J. Biol. Chem. 265:4432-4437) SKN695 are SK-N-SH human neuroblastoma cells stably transfected with pCMV695.
To analyze the effect of MDL 28170 on the processing of APP, cells were grown to confluence in two 10 cm dishes, pulse-labeled with 600 μCi of [^35S]-methionine in 4 ml of serum-free medium for 2 hours and then chased for 2 hours with 4 ml medium containing 10% fetal bovine serum and the indicated final concentration of MDL 28170 (initially dissolved at 200 mM. in DMSO). Control dishes were treated with DMSO alone.
Conditioned media and cell lysates were analyzed by immunoprecipitation, as described (Haass, et al. (1992) Nature 359:322-325). Polyclonal antibody R1736 to residues 595-611 of APP695 was used to precipitate α-APPs (Haass, (1994) J. Biol. Chem. 269:17741-17748). This antibody recognizes an epitope that is specific for the free COOH-terminus of α-cleaved APPs. Polyclonal antibody R1282 was generated to synthetic Aβ1-40 (Haass, et al. (1992) Nature 359:322-325). […]

total Aβ and total p3 = settings: literature; cited from earlier work

Row | Structure (SMILES) | Aβ(42) (antibody 21F12) (K695sw cells; 1 μM PDBu, 2 h pulse 2 h chase) | p3(42) (antibody 21F12) (K695sw cells; 1 μM PDBu, 2 h pulse 2 h chase) | total Aβ (subsequent R1282) (K695sw cells; 1 μM PDBu, 2 h pulse 2 h chase) | total Aβ (total Aβ and total p3) | total p3 (total Aβ and total p3) | β-secretase activity (β-cleaved APPs, antibody 192sw immunoprecipitation) (K695sw cells; 200 μM during 2 h chase)
1 | CCCC(=O)O[C@@H]1[C@@H](C)[C@@]2(O)[C@@H](C=C(CO)C[C@]3(O)C(=O)C(C)=C[C@@H]23)[C@@H]2C(C)(C)[C@]12OC(=O)CCC [PDBu] | decreases | increase | decreases | decrease | increase | –
2 | CC(C)[C@H](NC(=O)OCc1ccccc1)C(=O)N[C@H](C=O)Cc1ccccc1 [MDL 28170] (Cbz-Val-Phe-aldehyde) | – | – | – | – | – | does not significantly inhibit
